The text below walks through data of patent publication US8420626B2, “Arene connected polyamine macrocyclic derivatives, preparation methods and pharmaceutical uses thereof” (Beijing Molecule Science and Technology Co., Ltd., priority 2007, dated 2013).

Structures are written as SMILES. Counter-ions that a name gives are not always drawn. Like-named read-outs stand apart in the source and are kept apart here.

What all share (format): cell-based
The subject of series [1] is p24 antigens of HIV-1. As to the kind of experiment: Anti-HIV activity: inhibition of p24 antigen (ELISA). As for the experimental part: (§1) Per well of polystyrene plate (Immulon IB, Dynex Technology, Chantilly, Va.) was applied with HIV IG (a buffer of 0.085 M sodium carbonate and sodium bicarbonate, pH=9.6), stood at 4° C. over night, washed with PBS-T buffer (0.01 M PBS contains 0.05% Tween-20). The reaction was […] with PBS containing 1% skimmed milk (Bio-Rad Inc., Hercules, Calif.). A virus dissolved product was added to the wells, incubated at 37° C. for 1 hour, and washed. To the washed wells were added anti-P24 mAb (183-12H-5C), biotin labeled antimouse IgG1 (Santa Cruz Biotech., Santa Cruz, Calif.), SA-HRP and TMB successively. The reaction was terminated with 1N H2SO4. The absorption was detected at 450 nm by means of ELISA detector (Ultra 384, Tecan). Recombination protein p24 (US Biological, Swampscott, Mass.) was considered when the response curve of standard dosage was established. The inhibition activity IC50 (half inhibition concentration) values of p24 protein and (cell pathological effect) CPE were calculated by Calcusyn software provided by Sloan-Kettering Cancer Center (New York).
(§2) The inhibition activity (IC50) of pathological effect (CPE) and cytotoxicity (CC50) of p24 antigens and cells of HIV-1 of the compounds of part of examples were shown as follows: […]

Series [2] has as its system HIV-1. Description: Anti-HIV activity: inhibition of cell pathological effect (CPE). As to conditions: Human immunodeficiency virus 1; inhibition of cell pathological effect of HIV-1. Here is the method:
as §1, §2

The nature of series [3]: Cytotoxicity (XTT assay). As to conditions: half toxic concentration, incubation 4 days at 37° C. As for the experimental part: To 100 μl solution per compound on 96 wells cultivation plate at a certain concentration was added the same volume of cells (5×10^5/ml). Incubation was performed at 37° C. for 4 days. To the resultant were added 50 μl XTT solution (1 mg/ml) and 0.02 nM PMS. After the incubation was performed for 4 hours, the absorption was detected at 450 nm by means of ELISA detector. The CC50 (half toxic concentration) value was calculated by Calcusyn software provided by Sloan-Kettering Cancer Center (New York).
as §2

The mark [4] stands for this setting: Human immunodeficiency virus 1, inhibition of HIV-1 p24 antigen, ELISA at 450 nm, read-out: IC50 (μM) p24.

With `c1ccc(C(c2cccc(CN3CCCNCCNCCCNCC3)c2)c2cccc(CN3CCCNCCNCCCNCC3)c2)cc1` [Example 1, 3,3′-bis[(1,4,8,11-tetraazacyclotetradecan-1-yl)-methyl]-1,1′,1″-triphenylmethane octahydrobromide dihydrate], the results for the IC50 in series [1] (setting [4]) and in series [2] were 0.13 ± 0.02 µM and 0.41 ± 0.11 µM, respectively. In addition, the CC50 at 4 days in series [3] came to 322000 ± 7130 nM.
Turning to `Cc1ccc(C(c2cccc(CN3CCCNCCNCCCNCC3)c2)c2cccc(CN3CCCNCCNCCCNCC3)c2)cc1` [Example 2, 3,3′-bis[(1,4,8,11-tetraazacyclotetradecan-1-yl)-methyl]-4″-methyl-1,1′,1″-triphenylmethane octahydrobromide dihydrate], the IC50 in series [1] (setting [4]) turned out to be 0.17 ± 0.08 µM; in series [2], 0.48 ± 0.31 µM. This compound returned a cytotoxic concentration (CC50) at 4 days in series [3] of 285000 ± 18800 nM.
For the compound `Brc1ccc(C(c2cccc(CN3CCCNCCNCCCNCC3)c2)c2cccc(CN3CCCNCCNCCCNCC3)c2)cc1` [Example 3, 3,3′-bis[(1,4,8,11-tetraazacyclotetradecan-1-yl)-methyl]-4″-bromo-1,1′,1″-triphenylmethane octahydrobromide dihydrate], the results for the IC50 in series [1] (setting [4]) and in series [2] were 0.13 ± 0.01 µM and 0.08 ± 0.04 µM, respectively. The compound also registered a CC50 at 4 days in series [3] of 161000 ± 4230 nM.
As for `Fc1ccc(C(c2cccc(CN3CCCNCCNCCCNCC3)c2)c2cccc(CN3CCCNCCNCCCNCC3)c2)cc1` [Example 4, 3,3′-bis[(1,4,8,11-tetraazacyclotetradecan-1-yl)-methyl]-4″-fluoro-1,1′,1″-triphenylmethane octahydrobromide dihydrate], the half-maximal inhibitory concentration (IC50) was determined as 0.32 ± 0.02 µM in series [1] (setting [4]) and 0.42 ± 0.06 µM in series [2]. This compound showed a CC50 at 4 days in series [3] of 367000 ± 54000 nM.
For `Clc1cccc(C(c2cccc(CN3CCCNCCNCCCNCC3)c2)c2cccc(CN3CCCNCCNCCCNCC3)c2)c1` [Example 5, 3,3′-bis[(1,4,8,11-tetraazacyclotetradecan-1-yl)-methyl]-3″-chloro-1,1′,1″-triphenylmethane octahydrobromide dihydrate] the same measures were 0.35 ± 0.04 µM, 0.23 ± 0.01 µM and 162000 ± 2690 nM.
With `c1ccc(C(c2cccc(CN3CCCNCCNCCCNCC3)c2)c2cccc(CN3CCCNCCNCCCNCC3)c2)nc1` [Example 6, 2-{[3,3′-bis[(1,4,8,11-tetraazacyclotetradecan-1-yl)-methyl]-1,1′yl]-diphenyl}methylenepyridyl octahydrobromide dihydrate], the values for the concentration for half-maximal inhibition (IC50) in series [1] (setting [4]) and in series [2] were 0.16 ± 0.04 µM and 0.55 ± 0.16 µM, respectively. The compound also returned a CC50 at 4 days in series [3] of 377000 ± 34400 nM.
For the compound `c1ccc(C(c2ccc(CN3CCCNCCNCCCNCC3)cc2)c2ccc(CN3CCCNCCNCCCNCC3)cc2)cc1` [Example 7, 4,4′-bis[(1,4,8,11-tetraazacyclotetradecan-1-yl)-methyl]-1,1′,1″-triphenylmethane octahydrobromide dihydrate], the results for the IC50 in series [1] (setting [4]) and in series [2] were 0.98 ± 0.12 µM and 2.42 ± 0.4 µM, respectively. In series [3], this compound yielded a 50% cytotoxic concentration (CC50) at 4 days of 101000 ± 1050 nM.
For the compound `Cc1ccc(C(c2ccc(CN3CCCNCCNCCCNCC3)cc2)c2ccc(CN3CCCNCCNCCCNCC3)cc2)cc1` [Example 8, 4,4′-bis[(1,4,8,11-tetraazacyclotetradecan-1-yl)-methyl]-4″-methyl-1,1′,1″-triphenylmethane octahydrobromide dihydrate], the figures for the IC50 in series [1] (setting [4]) and in series [2] were 0.97 ± 0.14 µM and 2.05 ± 0.58 µM, respectively. Moreover, the CC50 at 4 days in series [3] stood at 130000 ± 12400 nM.
In the case of `Brc1ccc(C(c2ccc(CN3CCCNCCNCCCNCC3)cc2)c2ccc(CN3CCCNCCNCCCNCC3)cc2)cc1` [Example 9, 4,4′-bis[(1,4,8,11-tetraazacyclotetradecan-1-yl)-methyl]-4″-bromo-1,1′,1″-triphenylmethane octahydrobromide dihydrate], the IC50 is 0.43 ± 0.07 µM in series [1] (setting [4]) and 1.75 ± 0.37 µM in series [2]. In series [3], the CC50 at 4 days is 65800 ± 7960 nM.
As to `Fc1ccc(C(c2ccc(CN3CCCNCCNCCCNCC3)cc2)c2ccc(CN3CCCNCCNCCCNCC3)cc2)cc1` [Example 10, 4,4′-bis[(1,4,8,11-tetraazacyclotetradecan-1-yl)-methyl]-4″-fluoro-1,1′,1″-triphenylmethane octahydrobromide dihydrate], the half-maximal inhibitory concentration (IC50) was determined as 0.43 ± 0.11 µM in series [1] (setting [4]) and 1.22 ± 0.2 µM in series [2]. In series [3], this compound registered a CC50 at 4 days of 91300 ± 8750 nM.
Regarding `Clc1cccc(C(c2ccc(CN3CCCNCCNCCCNCC3)cc2)c2ccc(CN3CCCNCCNCCCNCC3)cc2)c1` [Example 11, 4,4′-bis[(1,4,8,11-tetraazacyclotetradecan-1-yl)-methyl]-3″-chloro-1,1′,1″-triphenylmethane octahydrobromide dihydrate], the 50% inhibitory concentration (IC50) turned out to be 0.65 ± 0.2 µM in series [1] (setting [4]) and 1.48 ± 0.52 µM in series [2]. Besides, the 50% cytotoxic concentration (CC50) at 4 days in series [3] turned out to be 67800 ± 13300 nM.
`c1ccc(C(c2cccc(CN3CCCNCc4cccc(c4)CNCCC3)c2)c2cccc(CN3CCCNCc4cccc(c4)CNCCC3)c2)cc1` [Example 13, 3,3′-bis{[3,7,11-triaza-dicyclo[11.3.1]heptadecan-1(16),13(17),14-trien-7-yl]-methyl}-1,1′,1″-triphenylmethane hexahydrobromide dihydrate]: the IC50 in series [1] (Human immunodeficiency virus 1, read-out: IC50 (μM) p24) was 0.64 ± 0.08 µM; in series [2] it was 1.56 ± 0.48 µM. Besides, in series [3], the half-maximal cytotoxic concentration (CC50) at 4 days was determined as 12400 ± 3690 nM.
For the compound `c1ccc(C(c2cccc(CN3CCCNCc4cccc(n4)CNCCC3)c2)c2cccc(CN3CCCNCc4cccc(n4)CNCCC3)c2)cc1` [Example 19, 3,3′-bis{[3,7,11,17-tetraaza-dicyclo[11.3.1]heptadecan-1(16),13(17),14-trien-7-yl]-methyl}-1,1′,1″-triphenyl methane hexahydrobromide dihydrate], the IC50 in series [1] (setting [4]) came to 0.44 ± 0.04 µM; in series [2], 0.79 ± 0.02 µM. In series [3], this compound gave a CC50 at 4 days of 14500 ± 1290 nM.
On the same counts, the results for `Clc1cccc(C(c2cccc(CN3CCCNCc4cccc(n4)CNCCC3)c2)c2cccc(CN3CCCNCc4cccc(n4)CNCCC3)c2)c1` [Example 23, 3,3′-bis{[3,7,11,17-tetraaza-dicyclo[11.3.1]heptadecan-1(16),13(17),14-trien-7-yl]-methyl}-3″-chloro-1,1′,1″-triphenylmethane hexahydrobromide dihydrate] are 0.32 ± 0.05 µM, 1.18 ± 0.48 µM and 15300 ± 560 nM.
For `c1ccc(C(c2ccc(CN3CCCNCc4cccc(c4)CNCCC3)cc2)c2ccc(CN3CCCNCc4cccc(c4)CNCCC3)cc2)cc1` [Example 25, 4,4′-bis{[3,7,11-triaza-dicyclo[11.3.1]heptadecan-1(16),13(17),14-trien-7-yl]-methyl}-1,1′1″-triphenylmethane hexahydrobromide dihydrate] the same measures were 0.55 ± 0.09 µM, 1.87 ± 0.28 µM and 32500 ± 3270 nM.
For `Cc1ccc(C(c2ccc(CN3CCCNCc4cccc(n4)CNCCC3)cc2)c2ccc(CN3CCCNCc4cccc(n4)CNCCC3)cc2)cc1` [Example 31, 4,4′-bis{[3,7,11,17-tetraaza-dicyclo[11.3.1]heptadecan-1(16),13(17),14-trien-7-yl]-methyl}-4″-methyl-1,1′,1″-triphenylmethane hexahydrobromide dihydrate] the same measures were 0.78 ± 0.18 µM, 1.07 ± 0.79 µM and 39290 ± 80 nM.
Regarding `Brc1ccc(C(c2ccc(CN3CCCNCc4cccc(n4)CNCCC3)cc2)c2ccc(CN3CCCNCc4cccc(n4)CNCCC3)cc2)cc1` [Example 32, 4,4′-bis{[3,7,11,17-tetraaza-dicyclo[11.3.1]heptadecan-1(16),13(17),14-trien-7-yl]-methyl}-4″-bromo-1,1′,1″-triphenylmethane hexahydrobromide dihydrate], the 50% inhibitory concentration (IC50) in series [1] (setting [4]) turned out to be 0.15 ± 0.02 µM; in series [2] it was 0.8 ± 0.23 µM. Also, the CC50 at 4 days in series [3] was found to be 12900 ± 310 nM.
